Assay results reported in paper PMC12881670, “Investigation into ligand selectivity and bias at the formyl peptide receptor family” (The Journal of Pharmacology and Experimental Therapeutics, 2025).
Where a SMILES comes first, the peptide text is derived from it. Where no end group is shown, it is not given here. [ ]: non-standard residue; d: D form. The star is where a group is joined. Palmitoyl = CCCCCCCCCCCCCCCC(=O)*; 5/6‑FAM = fluorescein

Columns and labels:
[1] = biological target: T1, Hs_FPR2 (Homo sapiens, UniProt P25090); experiment: Competition binding of fluorescent WKYMVm, flow cytometry; conditions: for Max Comp (%): maximum proportion of competition with 10 nM K(5/6-FAM)-WKYMVm, mean, ND = no competition observed
T1 construct: expressed in transfected cells
T1 sequence (P25090 1-351): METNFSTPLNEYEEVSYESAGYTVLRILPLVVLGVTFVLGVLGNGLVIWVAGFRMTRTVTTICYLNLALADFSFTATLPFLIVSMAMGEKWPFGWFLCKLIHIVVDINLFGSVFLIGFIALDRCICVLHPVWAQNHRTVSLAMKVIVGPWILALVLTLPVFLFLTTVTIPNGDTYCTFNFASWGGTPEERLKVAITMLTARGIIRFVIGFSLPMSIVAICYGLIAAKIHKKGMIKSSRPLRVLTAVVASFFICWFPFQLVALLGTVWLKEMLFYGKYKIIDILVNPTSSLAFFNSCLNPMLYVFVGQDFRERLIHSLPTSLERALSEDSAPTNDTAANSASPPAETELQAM
Procedure: (§1) Mean cell fluorescence was then measured for 5000 cells by flow cytometry using either a BD FACScalibur or BD Attune.
(§2) All data were analyzed using GraphPad Prism using the nonlinear regression log(agonist) versus response (3 parameters) function for all assays, except binding, which was analyzed using the One site-FitlogIC50 function. Bias calculations were carried out following IUPHAR guidelines as described,[27]^,[37] and data were presented as the Δ Activity ratio (Log[EmaxB/EC50B])-(Log[EmaxA/EC50A]).

[2] = biological target: T2, Mm_Fpr2 (Mus musculus, UniProt O88536); experiment: as above; conditions: for Max Comp (%): maximum proportion of competition with 10 nM K(5/6-FAM)-WKYMVm
T2 construct: expressed in transfected cells
T2 sequence (O88536 1-351): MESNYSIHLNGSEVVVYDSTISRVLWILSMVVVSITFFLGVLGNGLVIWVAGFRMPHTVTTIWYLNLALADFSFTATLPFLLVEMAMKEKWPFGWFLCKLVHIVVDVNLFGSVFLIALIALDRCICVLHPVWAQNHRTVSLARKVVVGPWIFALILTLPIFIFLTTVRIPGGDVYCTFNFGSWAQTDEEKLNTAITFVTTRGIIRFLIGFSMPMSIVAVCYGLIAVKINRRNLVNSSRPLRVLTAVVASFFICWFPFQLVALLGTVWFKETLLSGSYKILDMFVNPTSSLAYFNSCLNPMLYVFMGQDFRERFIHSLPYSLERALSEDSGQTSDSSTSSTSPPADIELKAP
Procedure: as §1, §2

[3] = biological target: T1, Hs_FPR2; experiment: BRET receptor-RLuc8 interaction with Venus-mGsi; assay type: cell-based
Procedure: (§3) BRET1 assays to measure FPR interaction with Venus-mGsi and Arrestin 3-yellow fluorescent protein (YFP) were performed as previously described.[31]^,[32] Briefly, all FPRs C-terminally fused to Renilla Luciferase (donor, RLuc8) were transiently transfected along with either Venus-mGsi or YFP-Arrestin 3 (acceptor) at a ratio of 1:4. 24 hours post transfection, cells were replated into white-walled, 96-well plates and cultured for a further 24–48 hours. On the day of experimentation, growth media was aspirated and replaced with 80 μl Hanks Buffered Saline Solution and equilibrated for 30 minutes. Coelenterazine h was added to each well to a final concentration of 5 μM for 5 minutes before the addition of each compound, and the plate was incubated for a further 10 minutes at 37 °C before being read on a ClarioStar Plus, with luminescence measured at 480/20 nm (donor) and 530/20 (acceptor). The BRET ratio (acceptor/donor) was determined, and the background (untreated) subtracted to give the N-BRET value.
as §2

[4] = biological target: T2, Mm_Fpr2; experiment: BRET receptor-RLuc8 interaction with Venus-mGsi; assay type: cell-based
Procedure: as §3, §2

[5] = biological target: T1, Hs_FPR2; experiment: ERK1/2 phosphorylation by Western blotting; assay type: cell-based
Procedure: (§4) ERK phosphorylation was detected by Western blotting as previously described.[30] Briefly, HEK293 cells stably expressing FLAG-tagged FPRs were plated into 12-well culture plates until 90% confluent. On the day of the experiment, culture media was replaced with serum-free Dulbecco’s modified Eagle’s medium and incubated for 2 hours before stimulation with the indicated compounds. After 7 minutes, the media was removed and stimulation terminated by the addition of 100 μl sample buffer (0.5% SDS, Tris (pH 6.8), glycerol, at >90 °C).
as §2

[6] = biological target: T2, Mm_Fpr2; experiment: ERK1/2 phosphorylation by Western blotting; assay type: cell-based
Procedure: as §4, §2

[7] = biological target: T1, Hs_FPR2; experiment: BRET receptor-RLuc8 interaction with Arrestin 3-YFP; assay type: cell-based
Procedure: as §3, §2

[8] = biological target: T2, Mm_Fpr2; experiment: as above; assay type: cell-based
Procedure: as §3, §2

[9] = biological target: T2, Mm_Fpr2; experiment: Internalization of FLAG-tagged receptors by flow cytometry; assay type: cell-based; design: Emax: dose or concentration left out as unconfirmed
Procedure: (§5) Internalization of FPRs was measured by flow cytometry.[30] Briefly, cells were incubated with Alexa Fluor 657 conjugated M1 antiflag antibody (Sigma-Aldrich Cat# F3040, RRID:AB_439712) for 30 minutes at 37 °C to label surface receptors. Cells were then incubated with the indicated concentration of ligand before washing in PBS/0.04% EDTA to remove any remaining surface antibody. Remaining fluorescence was then measured using flow cytometry on either a BD FACScalibur or Attune, recording 5000 gated events. […] As a control, some samples were left untreated, and “strip only” was measured as a readout of constitutive endocytosis, and this value was subtracted from the data. Vehicle control (0.1% DMSO) had no effect on internalization of receptors.
as §2

[10] = biological target: T3, Mm_Fpr1 (Mus musculus, UniProt P33766); experiment: Competition binding of fluorescent WKYMVm, flow cytometry; conditions: for Max Comp (%): maximum proportion of competition with 10 nM K(5/6-FAM)-WKYMVm
T3 construct: expressed in transfected cells
T3 sequence (P33766 1-364): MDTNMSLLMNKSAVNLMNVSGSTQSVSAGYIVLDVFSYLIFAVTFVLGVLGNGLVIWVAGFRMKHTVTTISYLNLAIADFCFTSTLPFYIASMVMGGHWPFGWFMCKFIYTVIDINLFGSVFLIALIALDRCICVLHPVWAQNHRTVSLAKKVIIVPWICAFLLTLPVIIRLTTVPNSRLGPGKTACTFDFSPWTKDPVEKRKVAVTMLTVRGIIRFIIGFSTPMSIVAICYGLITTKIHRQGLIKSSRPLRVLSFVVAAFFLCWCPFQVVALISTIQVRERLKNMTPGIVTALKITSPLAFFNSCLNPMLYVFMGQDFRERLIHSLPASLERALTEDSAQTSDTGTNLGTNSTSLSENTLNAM
Procedure: as §1, §2

[11] = biological target: T3, Mm_Fpr1; experiment: BRET receptor-RLuc8 interaction with Venus-mGsi; assay type: cell-based
Procedure: as §3, §2

[12] = biological target: T3, Mm_Fpr1; experiment: ERK1/2 phosphorylation by Western blotting; assay type: cell-based
Procedure: as §4, §2

[13] = biological target: T3, Mm_Fpr1; experiment: BRET receptor-RLuc8 interaction with Arrestin 3-YFP; assay type: cell-based
Procedure: as §3, §2

[14] = biological target: T3, Mm_Fpr1; experiment: Internalization of FLAG-tagged receptors by flow cytometry; assay type: cell-based; design: Emax: dose or concentration left out as unconfirmed
Procedure: as §5, §2

[15] = test system: formyl peptide receptor family (Hs_FPR1, Hs_FPR2, Mm_Fpr1, Mm_Fpr2); experiment: Summary of main findings: receptor subtype selectivity and ligand bias across all readouts; design: species or system human and mouse
From the text: To determine ligand bias, a reference ligand is required, that is, “balanced” for the pathways tested.[37] […] We then used measurements of the activity ratio (Log (Emax/EC50)) for each receptor, ligand, and pathway in an attempt to observe any ligand bias (Fig. 6).

[16] = biological target: T1, Hs_FPR2; experiment: Internalization of FLAG-tagged receptors by flow cytometry; assay type: cell-based; design: Emax: dose or concentration left out as unconfirmed
Procedure: Internalization of FPRs was measured by flow cytometry.[30] Briefly, cells were incubated with Alexa Fluor 657 conjugated M1 antiflag antibody (Sigma-Aldrich Cat# F3040, RRID:AB_439712) for 30 minutes at 37 °C to label surface receptors. Cells were then incubated with the indicated concentration of ligand before washing in PBS/0.04% EDTA to remove any remaining surface antibody. Remaining fluorescence was then measured using flow cytometry on either a BD FACScalibur or Attune, recording 5000 gated events. […] As a control, some samples were left untreated, and “strip only” was measured as a readout of constitutive endocytosis, and this value was subtracted from the data.
as §2

[17] = mean, ND = no competition observed
[18] = log of EC50, phosphorylation of ERK1/2, HEK293 stable cells, mean, ND = no pERK signal detected
[19] = log of IC50, competition with 10 nM K(5/6-FAM)-WKYMVm, HEK293 stable cells, on ice 90 min, mean, ND = no competition observed
[20] = log of EC50, mGsi BRET, HEK293 transient, 10 min, mean, ND = no interaction detected
[21] = mGsi BRET, % of response to 1 μM WKYMVm, mean, ND = no interaction detected
[22] = phospho-ERK, % of 1 μM WKYMVm, mean, ND = no pERK signal detected
[23] = Arrestin 3 BRET, % of response to 1 μM WKYMVm, mean, ND = no interaction detected

## CCCCCCCCCCCCCCCC(=O)N[C@@H](CCCCN)C(=O)N[C@H](C(=O)N[C@@H](Cc1c[nH]cn1)C(=O)N[C@@H](CCCCN)C(=O)N[C@@H](CCCCN)C(=O)NCC(=O)N[C@@H](CCSC)C(=O)N[C@H](C(=O)N[C@@H](CCCCN)C(=O)N[C@@H](CO)C(=O)O)[C@@H](C)CC)[C@@H](C)CC [F2Pal10] (Palmitoyl-KIHKKGMIKS-OH)
[1]
  IC50: 5.37 µM
  Max Comp (%): 100%
[2]
  IC50: 4.2 µM
[2]; [17]
  Max Comp (%): 100%
[3]
  EC50: 0.166 µM
  Emax: 19.4%
[3]; only detected at 1 and 10 μM
  Gi interaction, % of that seen with WKYMVm: 20%
[4]
  EC50: 0.166 µM
  Emax: 24.2%
[5]
  Emax: 80.8%
[5]; [18]
  EC50: 0.0337 µM
[6]
  Emax: 141%
[6]; [18]
  EC50: 0.0533 µM
[7]
  Emax: 25.5%
[7]; read-out: Log EC50 (converted)
  EC50: 0.282 µM
[8]
  EC50: 0.263 µM
  Emax: 33.4%
[9]
  Emax: 12.3%

## CC(C)c1c(NC(=O)Nc2ccc(Cl)cc2)c(=O)n(-c2ccccc2)n1C [TC-FPR43]
[10]; [19]
  Log IC50 (M): −5.926 M
[10]; [17]
  Max Comp (%): 61.39%
[2]; [19]
  Log IC50 (M): −6.16 M
[2]; [17]
  Max Comp (%): 29.56%
[11]; [20]
  Log EC50 (M): −7.09 M
[11]; [21]
  Emax (%): 12.62%
[4]; [20]
  Log EC50 (M): −6.19 M
[4]; [21]
  Emax (%): 73.16%
[12]; [18]
  Log EC50 (M): −7.589 M
[12]; [22]
  Emax (%): 78.28%
[6]; [18]
  Log EC50 (M): −6.775 M
[6]; [22]
  Emax (%): 147.8%
[13]; [23]
  Emax (%): 39.42%
[8]; [23]
  Emax (%): 73.06%
[8]; log of EC50, Arrestin 3 BRET, HEK293 transient, 10 min, mean, ND = no interaction detected
  Log EC50 (M): −6.20 M
[14]; % of internalization to WKYMVm (1 mM in legend, 1 μM in text), Mm_Fpr1, 30 minutes, ND denotes no internalization measured
  Emax (%), internalization, Mean: 95.95%
[14]; Log EC50, HEK293 stably expressing FLAG-Mm_Fpr1, ligand 30 minutes, ND denotes no internalization measured
  Log EC50 (M), internalization, Mean: −6.155 M
[14]; Mm_Fpr1, 30 min, relative to 1 μM WKYMVm
  agonist-induced internalization (words): partial agonists
[9]; % of internalization to WKYMVm (1 mM in legend, 1 μM in text), Mm_Fpr2, 30 minutes
  Emax (%), internalization, Mean: 42.90%
[9]; Log EC50, HEK293 stably expressing FLAG-Mm_Fpr2, ligand 30 minutes
  Log EC50 (M), internalization, Mean: −7.063 M
[9]; Mm_Fpr2, 30 min, relative to 1 μM WKYMVm
  agonist-induced internalization (words): partial agonists
[15]; summary grade of ligand bias relative to WKYMVm, key not given
  Bias: No
[15]; summary of main findings, in words
  Notes: Partial/weak only

## CSCC[C@H](NC=O)C(=O)N[C@@H](CC(C)C)C(=O)N[C@@H](Cc1ccccc1)C(=O)O [fMLF, fMet-Leu-Phe]
[1]
  Max Comp (%): 3.4%
[10]
  IC50: 3.18 µM
[10]; [17]
  Max Comp (%): 45.65%
[3]
  Emax: 61.7%
[11]
  EC50: 11.7 µM
  Emax: 59.3%
[4]
  EC50: 26.3 µM
  Emax: 13.2%
[5]
  Emax: 40.2%
[12]
  Emax: 72.7%
[12]; [18]
  EC50: 2.27 µM
[13]
  EC50: 20.9 µM
  Emax: 83.4%
[8]
  EC50: 19.5 µM
  Emax: 22.7%
[16]
  Emax: 0.343%
[14]
  EC50: 4.48 µM
  Emax: 92.5%
[9]
  Emax: 54.4%

## K(5/6-FAM)-WKYMVm-NH2 (K(5/6‑FAM)WKYMV[dM]-NH2)
[1]; hFPR2, initial studies (not shown)
  Kd, saturable binding: low nM range
